Source: patent US12187759B2, “TLR7 agonists” (Primmune Therapeutics, Inc., priority 2019, dated 2025)

Test system: hPBMCs (Human Peripheral Blood Mononuclear Cells)
Assay: Induction of interferon-α in hPBMCs in vitro
Type: cell-based
Summary of the method: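 Peripheral blood mononuclear cells from healthy human donors were dispensed into replicate culture wells at 1.0-7.5×10^6 cells per well. They were exposed to test compound for 24 hours at 37° C. in humidified 5% CO2, with untreated wells as controls. Secreted interferon-α was quantified with a multisubtype ELISA or as IFNα2a in a luminex panel. MEC was defined as the lowest concentration giving a significant rise above baseline, generally at least 80 pg/ml. IFNmax was the highest IFN level seen at any tested concentration.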

**Q.** Which “Donor 1 MEC” value (Donor 1, interferon-α production) does the source give for CC[C@H](O)[C@@H]1C[C@@H](O)[C@H](n2c(=O)sc3c(=O)[nH]c(N)nc32)O1 [Compound A, 5-amino-3-((2R,3R,5S)-3-hydroxy-5-((S)-1-hydroxypropyl)tetrahydrofuran-2-yl)thiazolo[4,5-d]pyrimidine-2,7(3H,6H)-dione, reference compound] here?
**A.** ≤3.125 µM

**Q.** And the “Donor 1 IFNmax” value (Donor 1, maximum IFN at any concentration of the evaluated range)?
**A.** 1061 pg/mL

**Q.** And the “Donor 2 MEC” value (Donor 2, interferon-α production)?
**A.** ≤3.125 µM

**Q.** What about the “Donor 2 IFNmax” value (Donor 2, maximum IFN at any concentration of the evaluated range) of the same molecule?
**A.** 481 pg/mL

**Q.** And the “Donor 3 MEC” value (Donor 3, interferon-α production)?
**A.** ≤3.125 µM

**Q.** What about the “Donor 3 IFNmax” value (Donor 3, maximum IFN at any concentration of the evaluated range) of the same molecule?
**A.** 2243 pg/mL

**Q.** What about the Emax (Homo sapiens, PBMC, 24 h, peak IFNα2a as percentage of peak response of standard 2-Amino-7-(cyclopropylmethyl)-9-B-D-xylofuranosyl-7,9-dihydro-1H-purine-6,8-dione, averaged across donors, read-out: IFNrmax, Relative Maximal IFNα2a Production (%)) of the same molecule?
**A.** 103%

**Q.** What about the minimal effective concentration (Homo sapiens, PBMC, minimal effective concentration for interferon-α production (generally at least 80 pg/ml above baseline), geometric mean across at least three donors, 24 hours, read-out: Weighted MEC) of the same molecule?
**A.** ≤ 3.1 µM
